In data set [1] the test system is MRSA isolate 1096. Nature of the data set: microbe, parasite or virus in culture. The class given is cell-based. To be noted: Staphylococcus aureus, 24 h. As to the method:
(§1) The assay was conducted in accordance with the guideline of the Clinical and Laboratory Standard Institute (CLSI). […] The cell suspension was prepared in a 20-fold dilution using Cation-Adjusted Mueller-Hinton broth (CAHMB) as a diluent. A total of 10 µL of the diluted bacterial preparation and 100 µL of pure substances (0.25–64 µg/mL) were loaded into the 96-well plates. The plates were incubated at 37 °C for 24 h. Control wells were performed for broth (CAMHB) and inoculum. Vancomycin was tested as a control drug. The experiment was performed in triplicate for each tested strain.

Data set [2] has as its system MRSA isolate 142. The data set can be described thus: microbe, parasite or virus in culture. The data set is classed as cell-based. To be noted: Staphylococcus aureus, 24 h. As to the method:
as §1

The subject of data set [3] is MRSA isolate 2468. Nature of the data set: microbe, parasite or virus in culture. To be noted: Staphylococcus aureus, 24 h. The class given is cell-based. The procedure: as §1
Data set [4] concerns S. aureus TISTR 517. The data set can be described thus: microbe, parasite or virus in culture. The class given is cell-based. To be noted: Staphylococcus aureus, TISTR517, 24 h. The procedure: as §1
Data set [5] concerns MRSA isolate 1096. Nature of the data set: microbe, parasite or virus in culture. The class given is cell-based, Staphylococcus aureus. As to the method: (§2) Wells of 9 mm were punched on the solid media surface by a sterile tip, and 100 µL of purified substance was loaded before incubating the plates at 37 °C for 24 h. […] The result was collected from three independent experiments in which the diameter of the zone of inhibition was measured by a vernier caliper and reported as mean ± SD ([Lei et al., 2020]). The significant difference was determined by Student’s t-test at a p-value of less than 0.05.

The test system of data set [6] is MRSA isolate 142. The data set can be described thus: microbe, parasite or virus in culture. The class given is cell-based, Staphylococcus aureus. As to the method:
as §2

Data set [7] relates to MRSA isolate 2468. Nature of the data set: microbe, parasite or virus in culture. The class given is cell-based, Staphylococcus aureus. As to the method: as §2
The subject of data set [8] is S. aureus TISTR 517. The data set can be described thus: microbe, parasite or virus in culture. The class given is cell-based, Staphylococcus aureus. As to the method: as §2
The test system of data set [9] is S. aureus TISTR 517. The data set can be described thus: Inhibition of biofilm formation (crystal violet). The class given is cell-based. To be noted: Staphylococcus aureus, TISTR517, 48 h, read-out: IC50 of biofilm formation. As to the method: (§3) The cells were standardized using the same medium to achieve 1 × 10^8 CFU/mL. The cell suspension was mixed with peptide at various concentrations (0.5–256 µg/mL) in a 96-well plate. The plates were then incubated at 37 °C for 48 h. Then, the planktonic bacteria cells were removed from the plates by washing them with PBS. Thereafter, 100 µL of methanol was added to the plate to fix the biofilm-associated cells. The plates were dried and stained with 0.1% crystal violet for 15 min before rinsing twice with PBS. A total of 100 μL of […] was finally added to resolubilize the stained crystal violet. The plates were incubated at 37 °C for 30 min, and the supernatants were transferred to a new 96-well plate. The absorbance at 570 nm was measured by a microplate reader (Thermo Fisher Scientific Inc., Waltham, MA, USA) to determine the biofilm formation. […] One-way ANOVA was used to analyze the significant differences among treated samples compared to the untreated controls at various p-values.

Data set [10] concerns MRSA isolate 2468. Nature of the data set: Inhibition of biofilm formation (crystal violet). The class given is cell-based, Staphylococcus aureus. The procedure: as §3
For data set [11], the system named is MRSA isolate 2468. Nature of the data set: Biofilm eradication assay. The data set is classed as cell-based, Staphylococcus aureus. To be noted: vs untreated, p-value < 0.05. The procedure:
(§4) The bacteria were standardized to achieve 1 × 10^8 CFU/mL, and 100 µL of cell suspension was transferred to a 96-well microplate. The plates were incubated at 37 °C for 48 h for biofilm formation. The free bacteria cells were removed from the plates by washing them with PBS. Peptide solutions at the concentrations (0.5–256 µg/mL) were added to the microplate and incubated at 37 °C for 24 h. Subsequently, PBS was used to rewash the plate, and 100 µL of PBS was loaded into each well. The plate was sonicated for 30 min at room temperature, and the samples were taken and made a ten-fold serial dilution. A total of 10 µL of the diluted samples was plated on MH agar for colony count. Vancomycin and untreated samples were used as the positive and negative controls. Only SCD media without bacteria was used as the blank ([Yuan et al., 2019]). The significant difference was evaluated by one-way ANOVA (p-value < 0.05) compared to untreated controls.

Data set [12] deals with S. aureus TISTR 517 and MRSA isolate 142, 1096, and 2468. Nature of the data set: microbe, parasite or virus in culture. The data set is classed as cell-based, Staphylococcus aureus. As to the method: as §1
For data set [13], the system named is S. aureus TISTR 517 and MRSA isolate 2468. The data set can be described thus: Biofilm eradication assay, statements for both tested bacteria. The class given is cell-based, Staphylococcus aureus. As to the method: as §4
Data set [14] has as its system S. aureus and MRSA biofilms. To be noted: statically grown biofilms of S. aureus and MRSA; ref Zapotoczna et al., 2017; cited from earlier work. The source says:
Biofilm is an important virulence mechanism in many bacterial pathogens. The cells irreversibly adhere to the biotic and abiotic surfaces and are surrounded by an extracellular matrix in response to stress conditions ([Flemming & Wuertz, 2019]). […] S. aureus and MRSA develop a biofilm to decrease or prevent the diffusion of antimicrobial drugs into the cells, resulting in more drug r ...

The conditions of data set [15]: ref Baczek, Walijewski & Kaliszan, 2008, cited from earlier work.
The subject of data set [16] is human erythrocytes. The data set is classed as cell-based. As to the method: The Ethics Committee in Human Research at Walailak University has approved this study (WUEC-22-242-01; 15 August 2022). The written consent was obtained from a subject involved in the research. Whole blood (5 mL) was collected from a human volunteer and centrifuged at 700× g for 8 min. The pellets were washed 3 times with PBS before diluting to obtain 0.5% erythrocyte suspension. A total of 50 µL of erythrocytes was added to a 96-well plate, and the purified peptide in PBS (50 μL) was mixed to achieve the final peptide concentration of 1, 2, 4, 8, 16, 32, 64, 128, 256, and 512 µg/mL. The mixtures were then incubated at 37 °C for 1 h. They were further centrifuged at 1,000× g for 10 min, and the supernatant was loaded into a microplate before measuring the absorbance at 540 nm. The positive and negative controls were 1% Triton X-100 and untreated samples, respectively, while PBS was used as a blank control. This assay was carried out in three independent experiments. The percent hemolysis was calculated by the following equation:
%Hemolysis=[Asam−Ablank]/[Apos−Ablank]×100 where Asam is the sample absorbance, Apos and Ablank are the absorbance of positive and blank controls, respectively ([Oddo & Hansen, 2017]).

[17] abbreviates: Staphylococcus aureus, read-out: Inhibition zone.
Setting [18] is: Vancomycin (30 μg), mean ± SD, n = 3.

Values after ≈ are worked out from the molar mass of the structure shown. Values joined by “and” are separate entries in the source; they are usually repeats but may differ in a detail not shown here. Equal entries are not always repeated. Where no end group is shown, it is not given here.

Usually IC50 stands for the midpoint of a concentration-inhibition curve.

Turning to `CN[C@H](CC(C)C)C(=O)N[C@H]1C(=O)N[C@@H](CC(N)=O)C(=O)N[C@H]2C(=O)N[C@H]3C(=O)N[C@H](C(=O)N[C@H](C(=O)O)c4cc(O)cc(O)c4-c4cc3ccc4O)[C@H](O)c3ccc(c(Cl)c3)Oc3cc2cc(c3O[C@@H]2O[C@H](CO)[C@@H](O)[C@H](O)[C@H]2O[C@H]2C[C@](C)(N)[C@H](O)[C@H](C)O2)Oc2ccc(cc2Cl)[C@H]1O` [Vancomycin], the MBC in data set [1], in data set [2], in data set [3], in data set [4], in data set [12] (Staphylococcus aureus) and in data set [12] (against all tested bacteria) was 2 µg/mL (≈ 1.38 µM) in each case. Further, the MIC was 2 µg/mL (≈ 1.38 µM) in data set [1]; 2 µg/mL (≈ 1.38 µM) in data set [2]; 2 µg/mL (≈ 1.38 µM) in data set [3]; 2 µg/mL (≈ 1.38 µM) in [4]; 2 µg/mL and 1.38 µM in [12] (Staphylococcus aureus); 2 µg/mL (≈ 1.38 µM) in [12] (against all tested bacteria). For the same molecule, the zone of inhibition at 30 µg/disc turned out to be 23.1 ± 0.36 mm in data set [5] (setting [17]); 23.5 ± 0.59 mm in data set [6] (setting [17]); 23.9 ± 0.1 mm in data set [7] (setting [17]); 20.7 ± 0.23 mm in data set [8] (Staphylococcus aureus, TISTR517, read-out: Inhibition zone). In addition, the Inhibition zone in data set [5] (setting [18]) was determined as 23.10 mm; in [6] (setting [18]) it was 23.47 mm; in data set [7] (setting [18]) it was 23.90 mm; in data set [8] (setting [18]) it was 20.73 mm. Besides, the IC50 in data set [9] was 4.84 µg/mL (≈ 3.34 µM); in data set [10] (Staphylococcus aureus, 48 h, read-out: IC50 of biofilm formation), 5.91 µg/mL (≈ 4.08 µM). The “Biofilm formation (% of untreated) after treatment” value in [10] (4 μg/mL or 2× MIC, 37 °C 48 h, crystal violet, A570, mean ± SD of three experiments) is recorded as 68.25 ± 4.21%. Besides, the “Concentration that significantly reduced persistent cells in biofilm” value in [11] is on record as 64 µg/mL. Further, the “Concentration to destroy mature biofilms as multiple of MIC” value in data set [13] (128 μg/mL relative to MIC) is given as 64 × MIC. Moreover, in data set [13] (48 h preformed biofilms, 24 h treatment, both bacteria), the “Concentration that completely eradicated biofilm (killed persistent cells)” value is 128 µg/mL. The “Concentration for half-maximal inhibition of biofilms” value in [14] was 16.0 to 68.2 µg/mL.

For the molecule “DAEFGHDSG-NH2 [literature model peptide for RPC retention]”, in data set [15] (isocratic elution by 0.1% TFA and ACN), the RPC retention time was 3.75 min. For the same molecule, in [15], the pI is on record as 4.02.

As for MFLVVKVLKYVV [BrSPR19-P2], the “Therapeutic index (TI) of hemolysis / hemolysis index threshold” value in [16] is reported as 32.

The values are drawn from publication PMC10552749, “Anti-methicillin-resistant Staphylococcus aureus and antibiofilm activity of new peptides produced by a Brevibacillus strain” (PeerJ, 2023).
